Experimental data as given in patent US7078163B2, “Process for reducing mineralization of tissue used in transplantation” (Medtronic, Inc., priority 2001, dated 2006).

Molecular target: T1, Chymotrypsin (Bos taurus, UniProt P00766)
T1 construct: purchased Sigma C 4129; host or cells: bovine pancreas (tissue-derived)
Test: AZOCOLL enzyme activity assay of chymotrypsin after exposure to reducing agent
Assay type: biochemical, bovine
Details: chymotrypsin exposed to DTT 10 mM in presence of SDS 1% w:v, 2 hours, 37-40° C., desalted; AZOCOLL 37° C. 20 minutes; mean of 3; positive control 0.523, negative control 0.003
Description: Stock trypsin and chymotrypsin solutions were solubilized from dry powder supplied by the manufacturer in PBS, pH 7.4, at room temperature. Protein concentrations were set at 1 mg/ml. Protein solutions were sterile filtered through a 0.45 μm syringe filter to eliminate potential bacterial contamination.
Working solution of the protein was prepared by dilution from concentrated stock to a final concentration of 100 μg/ml.
The protein was incubated with the agents for 2 hours. […] The protein was passed over a Sephadex G-25 column, as described above, to prepare it for the assay. After the protein was eluted from the column it was used immediately in the assay.
Each of the proteins that were exposed to an agent was assessed for its activity by incubating it with a collagen substrate with an azo containing dye. AZOCOLL was suspended in PBS at a concentration of 1 mg/ml.
For the assay, 1 ml of protein was mixed with 1 ml of AZOCOLL substrate. The reaction was performed at 37° C. for 20 minutes in Ependorff microfuge tubes. […] The aqueous solution was removed from the centrifuge tubes and the absorbance of the solution (containing soluble azo dye) was monitored at 520 nm. […]
All experiments were run in triplicate. Data reported is the mean of the 3 readings. […]

Abs. @ 520 nm: 0.031
Compound: O[C@@H](CS)[C@@H](O)CS [reducing agent, dithiothreatol]
